Square brackets hold non-standard residues; d marks the D form. Ends that are not written are not given here. Peptide text beside a SMILES is read from it. Nle = CCCC[C@H](N)C(=O)O
Assays:
[1] = system: rat pituitary cells in tissue culture; experiment: Bioassay of hGRF analogs: GH release from cultured pituitary cells; assay type: cell-based; details: for Dose Needed to Release 2.01 μg/ml of GH (ED50 value for hGRF) / Maximum GH Released / Relative Maximum Activity (% of hGRF): from curves generated by ALLFIT; for GH release at dosages comparable to native hGRF: referring to Table 1; for Potency: (ED50 of hGRF)/(Dose required to give same response as ED50 of hGRF): relative to hGRF(1-44)-NH2 = 100
From the text: The assay for biological activity, which is based on the ability to stimulate release of growth hormone in rat pituitary cells in tissue culture, has been described in detail (Culler, M. D.; Kenjo, T.: Obara, N.; Arimuar, A., Stimulation of cAMP. Accumulation by Human Pancreatic GH-Releasing Factor-(1-44). Am. J. Physiol. 1984, 247 (Endocrinol.Metab.10), E609-E615.
ALLFIT, the 4-parameter logistic curve fitting program available from the Biomedical Computer Technology Information Center, Vanderbilt Medical Center, Nashville TN, was used to determine ED50 and maximal stimulated values from the data. In several instances, the amount of GH released reached a maximum value and decreased with further increasing doses of the hGRF analogs. To simplify the data analysis, these values were not used in the calculations. The calculated maximal responses, the doses of the analog required to release the amount of GH released at the ED50 of the standard (hGRF) and the potencies of the analogs relative to hGRF, are given in Table 2. Generally all novel analogs were fully active and were able to stimulate the release of growth hormone with maximal values of GH release being within 80% of the value for natural hGRF.

[2] = system: GH releasing activity; details: reported by Rivier et al.; cited from earlier work

Row | Compound | GH Released (mean ± (S.E.)) ([1]; Dose 1 × 10^-6 M) | GH Released (mean ± (S.E.)) ([1]; Dose 1 × 10^-7 M) | GH Released (mean ± (S.E.)) ([1]; Dose 1 × 10^-8 M) | GH Released (mean ± (S.E.)) ([1]; Dose 1 × 10^-9 M) | GH Released (mean ± (S.E.)) ([1]; Dose 1 × 10^-10 M) | GH Released (mean ± (S.E.)) ([1]; Dose 1 × 10^-11 M) | Dose Needed to Release 2.01 μg/ml of GH (ED50 value for hGRF) [1] [nM] | Maximum GH Released [1] [µg/mL] | Relative Maximum Activity (% of hGRF) [1] [%] | times more potent than hGRF(1-44)--NH2 ([1]; on a molar basis) [times] | GH release at dosages comparable to native hGRF [1] | Potency: (ED50 of hGRF)/(Dose required to give same response as ED50 of hGRF) [1] [%] | Biological activity compared with natural hGRF(1-44)--NH2 ([1]; natural hGRF isolated from a human pancreatic tumor (Salk Institute standard)) | activity compared in vitro with the parent hpGRF(1-40)--OH [2]
1 | CCCC[C@H](NC(=O)[C@@H](NC(=O)[C@H](CC(N)=O)NC(=O)[C@H](CCC(N)=O)NC(=O)[C@H](CC(C)C)NC(=O)[C@H](CC(C)C)NC(=O)[C@H](CCCCN)NC(=O)[C@H](CCCNC(=N)N)NC(=O)[C@H](C)NC(=O)[C@H](CO)NC(=O)[C@H](CC(C)C)NC(=O)[C@H](CCC(N)=O)NC(=O)CNC(=O)[C@H](CC(C)C)NC(=O)[C@@H](NC(=O)[C@H](CCCCN)NC(=O)[C@H](CCCNC(=N)N)NC(=O)[C@H](Cc1ccc(O)cc1)NC(=O)[C@H](CO)NC(=O)[C@H](CC(N)=O)NC(=O)[C@@H](NC(=O)[C@H](Cc1ccccc1)NC(=O)[C@@H](NC(=O)[C@H](C)NC(=O)[C@H](CC(=O)O)NC(=O)[C@H](C)NC(=O)[C@@H](N)Cc1ccc(O)cc1)[C@@H](C)CC)[C@@H](C)O)C(C)C)[C@@H](C)CC)C(=O)N[C@@H](CO)C(=O)N[C@@H](CCCNC(=N)N)C(=O)N[C@@H](CCC(N)=O)C(=O)N[C@@H](CCC(N)=O)C(N)=O [[Asn^25,Nle^27], [Asn^25,Nle^27]-hGRF(1-31)--NH2] (H-YADAIFTNSYRKVLGQLSARKLLQNI[Nle]SRQQ-NH2) | 3.22 (0.24) μg/mL | 3.22 (0.09) μg/mL | 3.10 (0.12) μg/mL | 3.12 (0.15) μg/mL | 1.84 (0.06) μg/mL | 0.72 (0.05) μg/mL | 0.12 | 3.18 | 96 | 2.7 | induced GH release in dosages comparable to those for native hGRF | 267 | – | –
2 | CCCC[C@H](NC(=O)[C@@H](NC(=O)[C@H](CC(N)=O)NC(=O)[C@H](CCC(N)=O)NC(=O)[C@H](CC(C)C)NC(=O)[C@H](CC(C)C)NC(=O)[C@H](CCCCN)NC(=O)[C@H](CCCNC(=N)N)NC(=O)[C@H](C)NC(=O)[C@H](CO)NC(=O)[C@H](CC(C)C)NC(=O)[C@H](CCC(N)=O)NC(=O)CNC(=O)[C@H](CC(C)C)NC(=O)[C@@H](NC(=O)[C@H](CCCCN)NC(=O)[C@H](CCCNC(=N)N)NC(=O)[C@H](Cc1ccc(O)cc1)NC(=O)[C@H](CO)NC(=O)[C@H](CC(=O)O)NC(=O)[C@@H](NC(=O)[C@H](Cc1ccccc1)NC(=O)[C@@H](NC(=O)[C@H](C)NC(=O)[C@H](CC(=O)O)NC(=O)[C@H](C)NC(=O)[C@@H](N)Cc1ccc(O)cc1)[C@@H](C)CC)[C@@H](C)O)C(C)C)[C@@H](C)CC)C(=O)N[C@@H](CO)C(=O)N[C@@H](CCCNC(=N)N)C(=O)N[C@@H](CCC(N)=O)C(=O)N[C@@H](CCC(N)=O)C(N)=O [[Asp^8,Asn^25,Nle^27], [Asp^8,Asn^25,Nle^27]-hGRF(1-31)--NH2] (H-YADAIFTDSYRKVLGQLSARKLLQNI[Nle]SRQQ-NH2) | 2.86 (0.07) μg/mL | 2.93 (0.17) μg/mL | 2.86 (0.08) μg/mL | 2.59 (0.17) μg/mL | 0.96 (0.07) μg/mL | 0.74 (0.09) μg/mL | 0.42 | 2.89 | 87 | – | induced GH release in dosages comparable to those for native hGRF | 76 | – | –
3 | CCCC[C@H](NC(=O)[C@@H](NC(=O)[C@H](CC(=O)O)NC(=O)[C@H](CCC(N)=O)NC(=O)[C@H](CC(C)C)NC(=O)[C@H](CC(C)C)NC(=O)[C@H](CCCCN)NC(=O)[C@H](CCCNC(=N)N)NC(=O)[C@H](C)NC(=O)[C@H](CO)NC(=O)[C@H](CC(C)C)NC(=O)[C@H](CCC(N)=O)NC(=O)CNC(=O)[C@H](CC(C)C)NC(=O)[C@@H](NC(=O)[C@H](CCCCN)NC(=O)[C@H](CCCNC(=N)N)NC(=O)[C@H](Cc1ccc(O)cc1)NC(=O)[C@H](CO)NC(=O)[C@H](CC(=O)O)NC(=O)[C@@H](NC(=O)[C@H](Cc1ccccc1)NC(=O)[C@@H](NC(=O)[C@H](C)NC(=O)[C@H](CC(=O)O)NC(=O)[C@H](C)NC(=O)[C@@H](N)Cc1ccc(O)cc1)[C@@H](C)CC)[C@@H](C)O)C(C)C)[C@@H](C)CC)C(=O)N[C@@H](CO)C(=O)N[C@@H](CCCNC(=N)N)C(=O)N[C@@H](CCC(N)=O)C(=O)N[C@@H](CCC(N)=O)C(N)=O [[Asp^8,Nle^27], [Asp^8,Nle^27]-hGRF(1-31)---NH2] (H-YADAIFTDSYRKVLGQLSARKLLQDI[Nle]SRQQ-NH2) | 3.17 (0.24) μg/mL | 3.52 (0.22) μg/mL | 3.59 (0.17) μg/mL | 2.69 (0.12) μg/mL | 1.18 (0.10) μg/mL | 0.61 (0.03) μg/mL | 0.39 | 3.60 | 109 | – | induced GH release in dosages comparable to those for native hGRF | 82 | – | –
4 | CC[C@H](C)[C@H](NC(=O)[C@H](C)NC(=O)[C@H](CC(=O)O)NC(=O)[C@H](C)NC(=O)[C@@H](N)Cc1ccc(O)cc1)C(=O)N[C@@H](Cc1ccccc1)C(=O)N[C@H](C(=O)N[C@@H](CC(N)=O)C(=O)N[C@@H](CO)C(=O)N[C@@H](Cc1ccc(O)cc1)C(=O)N[C@@H](CCCNC(=N)N)C(=O)N[C@@H](CCCCN)C(=O)N[C@H](C(=O)N[C@@H](CC(C)C)C(=O)NCC(=O)N[C@@H](CCC(N)=O)C(=O)N[C@@H](CC(C)C)C(=O)N[C@@H](CO)C(=O)N[C@@H](C)C(=O)N[C@@H](CCCNC(=N)N)C(=O)N[C@@H](CCCCN)C(=O)N[C@@H](CC(C)C)C(=O)N[C@@H](CC(C)C)C(=O)N[C@@H](CCC(N)=O)C(=O)N[C@@H](CC(=O)O)C(=O)N[C@H](C(=O)N[C@@H](CCSC)C(=O)N[C@@H](CO)C(=O)N[C@@H](CCCNC(=N)N)C(=O)N[C@@H](CCC(N)=O)C(=O)N[C@@H](CCC(N)=O)C(=O)NCC(=O)N[C@@H](CCC(=O)O)C(=O)N[C@@H](CO)C(=O)N[C@@H](CC(N)=O)C(=O)N[C@@H](CCC(N)=O)C(=O)N[C@@H](CCC(=O)O)C(=O)N[C@@H](CCCNC(=N)N)C(=O)NCC(=O)N[C@@H](C)C(=O)N[C@@H](CCCNC(=N)N)C(=O)N[C@@H](C)C(=O)N[C@@H](CCCNC(=N)N)C(=O)N[C@@H](CC(C)C)C(N)=O)[C@@H](C)CC)C(C)C)[C@@H](C)O [hGRF(1-44)-NH2, hGRF(1-44)--NH2, reference compound] | 2.81 (0.13) μg/mL | 3.17 (0.12) μg/mL | 3.44 (0.23) μg/mL | 2.84 (0.12) μg/mL | 1.16 (0.04) μg/mL | 0.73 (0.03) μg/mL | 0.32 | 3.31 | 100 | – | – | 100 | identical to the natural hGRF(1-44)--NH2 | –
5 | hpGRF(1-27)--NH2 (YADAIFTNSYRKVLGQLSARKLLQDIM-NH2; UniProt P01286 32-58, looked up, fragment) [shortened GRF analog tested by Rivier et al] | – | – | – | – | – | – | – | – | – | – | – | – | – | exhibited similar activity
6 | hpGRF(1-29)--NH2 (YADAIFTNSYRKVLGQLSARKLLQDIMSR-NH2; UniProt P01286 32-60, looked up, fragment) [shortened GRF analog tested by Rivier et al] | – | – | – | – | – | – | – | – | – | – | – | – | – | exhibited similar activity
7 | hpGRF(1-32)--NH2 (YADAIFTNSYRKVLGQLSARKLLQDIMSRQQG-NH2; UniProt P01286 32-63, looked up, fragment) [shortened GRF analog tested by Rivier et al] | – | – | – | – | – | – | – | – | – | – | – | – | – | exhibited similar activity
8 | hpGRF(1-39)--NH2 (YADAIFTNSYRKVLGQLSARKLLQDIMSRQQGESNQERG-NH2; UniProt P01286 32-70, looked up, fragment) [shortened GRF analog tested by Rivier et al] | – | – | – | – | – | – | – | – | – | – | – | – | – | exhibited similar activity
9 | hpGRF(1-40)--NH2 (YADAIFTNSYRKVLGQLSARKLLQDIMSRQQGESNQERGA-NH2; UniProt P01286 32-71, looked up, fragment) [shortened GRF analog tested by Rivier et al] | – | – | – | – | – | – | – | – | – | – | – | – | – | exhibited similar activity

— patent US4801456A, “Growth hormone-releasing factor analogs” (International Minerals & Chemical Corp., priority 1987, dated 1989)
